Test results published in patent US20110263542A1, “METHODS TO TREAT PAIN USING AN ALPHA-2 ADRENERGIC AGONIST AND AN ENDOTHELIN ANTAGONIST” (ENGOGENX, priority 2008, published 2011).
“Also recorded” adds a separate entry of the source. Where a name gives a salt, the structure may show the parent alone. Read-outs that look alike come from different tables or passages of the source.

Key:
rats = conditions: for effect of antagonist on clonidine induced potentiation of morphine analgesia / effect of antagonist on clonidine induced potentiation of oxycodone analgesia: idazoxan 2 mg/kg ip or yohimbine 2 mg/kg ip 15 min before clonidine 1 mg/kg ip; for effect of antagonist on clonidine induced potentiation of morphine analgesia: morphine 8 mg/kg sc; for analgesic effect of agent alone (in words): clonidine 1 mg/kg ip
[1] = cited from earlier work
[2] = cited from earlier work; remark: listed apart in the source
Body temperature in mice = format: in vivo; conditions: clonidine 0.3 mg/kg with 0.5% CMC or sulfisoxazole 250, 500 or 1000 mg/kg; after 3 hours; FIG. 6B
mice = experiment: Tail-flick latency (antinociception) in mice
Procedure: Animals: Male Swiss Webster mice weighing 25 to 30 g (Harlan, Indianapolis, IN) were used. The animals were housed five per cage in a room with controlled ambient temperature (23±1° C.), humidity (50±10%) and twelve-hour light/dark cycle (6.00 AM to 6.00 PM). Food and water were made available ad libitu Experiments were carried out after the animals had been acclimated to this environment for at least 4 days.
Statistics: All data values are presented as mean±SEM. ANOVA followed by post-hoc test (Bonferroni's Test) were used to test differences within and between groups. A level of P<0.05 was considered significant.
Application of theiinal stimulation (focused light) to the tail of an animal provoked withdrawal of the tail by a brief vigorous movement. The reaction time of this movement was recorded as tail-flick latency by using an analgesiometer. […] A cutoff time of 10 sec was used to prevent damage to the tail. Tail flick latency values were subtracted from the basal latency and the differential values were used to calculate the area under the curve (AUC).

[3] = tested on: patients, immediately after spinal fusion; conditions: cited from earlier work
[4] = tested on: patients undergoing cesarean delivery; conditions: epidural clonidine 75 μg; cited from earlier work
[5] = tested on: patients having coronary artery bypass graft surgery; conditions: cited from earlier work

c1ccc2c(c1)OCC(C1=NCCN1)O2 (centres unmarked) [Idazoxan, 2-(1,4-benzodioxan-2-yl)-2-imidazoline]
effect of antagonist on clonidine induced potentiation of morphine analgesia (rats): did not affect; also recorded: No effect | effect of antagonist on clonidine induced potentiation of oxycodone analgesia (rats; oxycodone 4 mg/kg sc): Blocked

Cc1noc(NS(=O)(=O)c2cccc3c(N(C)C)cccc23)c1C [BMS182874, 5-(dimethylamino)-N-(3,4-dimethyl-5-isoxazolyl)-1-naphthalene sulfonamide]
analgesic effect of agent alone (in words) (rats; BMS182874 50 μg icv): did not produce any analgesic effect

4-amino-N-(3,4-dimethyloxazol-5-yl)-benzenesulfonamide [Sulfisoxazole]
concentration in the cerebrospinal fluid (in words) ([1]; average, relative to blood): about a third of blood concentration | excreted in urine by kidney ([1]; in 24 hours): 95% | binding to plasma proteins (in words) ([1]; in vivo): extensively bound to plasma proteins | solubility (in words) [2]: highly soluble

Clc1cccc(Cl)c1NC1=NCCN1 [Clonidine, N-(2,6-dichlorophenyl)-4,5-dihydro-1H-imidazol-2-amine]
body temperature, lowest value (from 37° C.) (Body temperature in mice): approximately 32 °C | analgesic effect of agent alone (in words) (rats; BMS182874 50 μg icv): produced analgesia; also recorded: significant | effect on morphine analgesia in rats treated with BMS182874 (rats; clonidine 0.3 and 1.0 mg/kg ip, BMS182874 50 μg icv, morphine 4 mg/kg sc): increase in morphine analgesia | effect on oxycodone analgesia in rats treated with BMS182874 (rats; clonidine 0.3 and 1.0 mg/kg ip, BMS182874 50 μg icv, oxycodone 4 mg/kg sc): increase in oxycodone analgesia | AUC0→240 min determined from tail flick latency (mice; Example 3, FIG. 1B: morphine 4 mg/kg s.c., clonidine 2 mg/kg i.p. 30 min before morphine or vehicle, mean±SEM, N=6): 68.4±12.3 | AUC0→240 min of tail flick latency (mice; Example 5 Study 2, FIG. 4: clonidine 2 mg/kg i.p., sulfisoxazole 1000 mg/kg oral, morphine 8 mg/kg s.c., mean±SEM, N=6): increase in AUC | tail flick latency (in words) (mice; clonidine 0.3 mg/kg i.p. plus 0.5% CMC p.o., by 6 hours): approximately the level of vehicle treated animals | change in mean arterial pressure ([3]; clonidine group at T11): −26+/−2% | mean arterial pressure ([3]; clonidine group): 74+/−2 mmHg | morphine requirement, dose for each patient ([3]; clonidine group, placebo 10.8+/−1.2): 3.8 ± 1 mg | pain score (visual analog scale 0-100 mm) after treatment ([3]; clonidine i.v. 5 micrograms/kg 1st h then 0.3 microgram/kg/h for 11 h, decreased from 42+/−5, mean+/−standard error): 26+/−3 mm | effect on duration of analgesia produced by 2 mg of morphine [4]: doubled

CN1CC[C@]23c4c5ccc(O)c4O[C@H]2[C@@H](O)C=C[C@H]3[C@H]1C5.O=S(=O)(O)O [Morphine, 7,8-didehydro-4,5α-epoxy-17-methylmorphinan-3,6α-diol sulfate]
morphine dosage in the first 24 h, median (25th-75th percentiles) ([5]; i.v. PCA morphine group (control)): 37 (30.5-51) mg | morphine dosage in the first 24 h, median (25th-75th percentiles) ([5]; intrathecal morphine 4 microg/kg group, plus i.v. PCA morphine): 40.5 (15-61.5) mg

COC(=O)[C@@H]1[C@H]2C[C@H]3c4[nH]c5ccccc5c4CCN3C[C@@H]2CC[C@@H]1O [Yohimbine, 17α-hydroxy-yohimban-16α-carboxylate hydrochloride]
effect of antagonist on clonidine induced potentiation of morphine analgesia (rats; hydrochloride): Blocked | effect of antagonist on clonidine induced potentiation of oxycodone analgesia (rats; oxycodone 4 mg/kg sc, hydrochloride): Blocked
